Assay results reported in article PMC12088830 (Xenobiotica; the fate of foreign compounds in biological …, 2021).
One block for each molecule: values may come before it.

How the values were obtained:
CYP2R1 [1] = test: Protein expression; assay type: cell-based, human
P-gp and MRP4 = settings: Caco-2 cells; 3 day treatment, 100 nM; ref Maeng et al 2012; cited from earlier work
ABCB1 = test: Gene expression; assay type: cell-based, human
hPTECs = test: Viability assay; assay type: cell-based, human
P-gp = test: Protein expression; assay type: cell-based, human; settings: 240 nM for six days
CYP24A1 [2] = test: Gene expression
CYP24A1 [3] = settings: HepG2 cells; 4 nM dose; ref Horvath et al 2012; cited from earlier work
SLCO4C1 = test: Gene expression; assay type: cell-based, human; settings: uraemic serum 24 h, then 240 nM for six days
CYP2R1 [4] = test: Gene expression; settings: for CYP2R1 mRNA expression compared to normal serum + VEH: normal serum 24 h; for CYP2R1 mRNA expression relative to VEH + normal serum: uraemic serum 24 h
OATP4C1 = test: Protein expression; assay type: cell-based, human; settings: for Effect on OATP4C1 protein expression: normal serum
in vitro = settings: human
[5] = normal serum 24 h, then 100 nM for six days
[6] = normal serum 24 h, then 240 nM for six days
[7] = uraemic serum 24 h, then 100 nM for six days

Compound: C=C1/C(=C\C=C2/CCC[C@]3(C)[C@@H]([C@H](C)CCCC(C)(C)O)CC[C@@H]23)C[C@@H](O)C[C@@H]1O [1,25-VitD3, calcitriol]
Decrease in CYP2R1 protein expression under uraemic conditions compared to the same treatment with normal serum (CYP2R1 [1]; 100 nM for six days): 38%
Decrease in CYP2R1 protein expression under uraemic conditions compared to the same treatment with normal serum (CYP2R1 [1]; 240 nM for six days): 64%
Effect on P-gp and MRP4 transport activity (basolateral to apical transport of adefovir dipivoxil) (P-gp and MRP4): Increased P-gp and MRP4 transport activity
ABCB1 mRNA expression compared to normal serum + VEH (ABCB1; [5]): 8.8 fold
ABCB1 mRNA expression compared to normal serum + VEH (ABCB1; [6]): 7.6 fold
ABCB1 mRNA expression compared to normal serum + VEH (ABCB1; [7]): 10 fold
Effect on increasing cell viability relative to VEH (hPTECs; uraemic serum 24 h pre-treatment, then 100 nM and 240 nM for six days): no significant effects
Effect on efflux ratio of [3H]digoxin (hPTEC monolayer; 240 nM for six days, normal or uraemic serum): did not have a significant effect
Increase in P-gp protein expression with uraemic serum compared to the same treatment with normal serum (P-gp): 1.44 fold
CYP24A1 mRNA expression compared to normal serum + VEH (CYP24A1 [2]; [5]): 8706 fold
CYP24A1 mRNA expression compared to normal serum + VEH (CYP24A1 [2]; [6]): 9483 fold
CYP24A1 mRNA expression compared to normal serum + VEH (CYP24A1 [2]; [7]): 4967 fold
CYP24A1 mRNA expression compared to normal serum + VEH (CYP24A1 [2]; uraemic serum 24 h, then 240 nM for six days): 5343 fold
CYP24A1 expression increase (CYP24A1 [3]): 5,300 fold
SLCO4C1 mRNA expression compared to normal serum + VEH (SLCO4C1): 3.3 fold
CYP2R1 mRNA expression compared to normal serum + VEH (CYP2R1 [4]; then 240 nM for six days): 4.7 fold
CYP2R1 mRNA expression relative to VEH + normal serum (CYP2R1 [4]; then 100 nM for six days): 4.8 fold
CYP2R1 mRNA expression relative to VEH + normal serum (CYP2R1 [4]; then 240 nM for six days): 4.0 fold
Decrease in OATP4C1 protein expression relative to normal serum + VEH (OATP4C1; 240 nM for six days): 54%
Effect on OATP4C1 protein expression (OATP4C1; 100 nM for six days): no effect

Compound: C=C1CC[C@H](O)C/C1=C/C=C1\CCC[C@]2(C)[C@@H]([C@H](C)CCCC(C)C)CC[C@@H]12 [VitD3, cholecalciferol]
Effect on ABCB1 mRNA expression (ABCB1; 100 or 240 nM for six days, normal or uraemic serum): no effect
Effect on cell viability (hPTECs; normal or uraemic serum, 100 or 240 nM for six days): no significant effects
Increase in CYP2R1 mRNA expression under uraemic conditions compared to normal serum (same treatment) (CYP2R1 [4]; 100 nM for six days): 45%
CYP2R1 mRNA expression compared to normal serum + VEH (CYP2R1 [4]; then 240 nM for six days): 3.6 fold
CYP2R1 mRNA expression relative to VEH + normal serum (CYP2R1 [4]; then 100 nM for six days): 3.1 fold
Effect on OATP4C1 protein expression (OATP4C1; 240 nM for six days): no effect

Papp A→B at 33.5 μM (in vitro): 3.9 ± 0.14 ×10⁻⁶ cm/s
Papp A→B at 6 h, 33.5 μM (in vitro): 4.1 ± 0.27 ×10⁻⁶ cm/s
Digoxin transport in the B→A direction (hPTEC monolayer; one hour post digoxin dosing, normal serum + VEH): 29.9 ± 2.4%
Compound: C[C@H]1O[C@@H](O[C@H]2[C@@H](O)C[C@H](O[C@H]3[C@@H](O)C[C@H](O[C@H]4CC[C@@]5(C)[C@H](CC[C@@H]6[C@@H]5C[C@@H](O)[C@]5(C)[C@@H](C7=CC(=O)OC7)CC[C@]65O)C4)O[C@@H]3C)O[C@@H]2C)C[C@H](O)[C@@H]1O [[^3H]digoxin, digoxin]
